Data as given in patent publication US20140107109A1, “AMINO-DIHYDROTHIAZINE AND AMINO-DIOXIDO DIHYDROTHIAZINE COMPOUNDS AS BETA-SECRETASE ANTAGONISTS AND METHODS OF USE” (Amgen Inc., priority 2012, published 2014).
Where two headings read alike, the source gives them in different places.

Tests used:
Cathepsin D (Cat D) = biological target: T1, Cathepsin D (Cat D) (Homo sapiens, UniProt P07339); assay: In vitro enzymatic Cathepsin D (Cat D) FRET assay; assay type: biochemical; conditions: read-out: CatD IC50
T1 construct: Recombinant Cat D was expressed in CHO cells; made in house; host or cells: CHO cells
Summary of the method: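 FRET read-out: a fluorophore/quencher-labelled peptide substrate is cleaved by 9 nM Cat D (recombinant, CHO-expressed) following a one-hour preincubation with inhibitor dilutions in DMSO. Tris buffer added to neutralize pH ends the reaction before fluorescence measurement.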

[1] = biological target: Beta Secretase enzyme (BACE1) (Homo sapiens, UniProt P56817); assay: In vitro enzymatic BACE FRET assay; assay type: biochemical; conditions: read-out: BACE1 FRET assay IC50
Summary of the method: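 Readout: dequenched fluorescence (ex 488 nm/[…]) after neutralizing with Tris buffer. Reactions, begun by adding 50 nM quenched peptide substrate spanning the BACE cleavage site, were incubated one hour at pH 4.2 in 0.05 M acetate with 100 uM genapol and 10% final DMSO.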

[2] = tested on: Aβ40 in conditioned medium of cells stably expressing Amyloid Precursor Protein (APP); assay: In vitro BACE cell-based assay (HEK cell assay), Aβ40 sandwich ELISA; conditions: Homo sapiens, HEK293
Summary of the method: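 Aβ40 in conditioned medium was quantified by time-resolved fluorescence sandwich ELISA (pAb40 capture 3 h at 4 °C, biotin-6E10 detection 2 h at 4 °C) after 24 h compound exposure of APP-expressing cells. Doses spanned 10 points from 100 μM or 10 μM top, 0.1% DMSO; IC50 was derived from percent of control.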

T1 sequence (P07339 65-412, species assumed): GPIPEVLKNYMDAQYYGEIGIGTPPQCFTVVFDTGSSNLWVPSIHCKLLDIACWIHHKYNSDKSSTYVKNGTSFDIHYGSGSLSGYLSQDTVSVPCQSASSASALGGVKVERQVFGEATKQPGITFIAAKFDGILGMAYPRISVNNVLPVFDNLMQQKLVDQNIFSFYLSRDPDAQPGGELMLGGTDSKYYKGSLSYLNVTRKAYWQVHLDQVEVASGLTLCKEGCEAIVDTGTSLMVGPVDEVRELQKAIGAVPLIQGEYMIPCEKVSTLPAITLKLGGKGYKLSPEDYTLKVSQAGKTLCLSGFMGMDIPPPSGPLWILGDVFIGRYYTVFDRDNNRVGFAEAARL
Chain of Beta Secretase enzyme (BACE1) (P56817 46-501): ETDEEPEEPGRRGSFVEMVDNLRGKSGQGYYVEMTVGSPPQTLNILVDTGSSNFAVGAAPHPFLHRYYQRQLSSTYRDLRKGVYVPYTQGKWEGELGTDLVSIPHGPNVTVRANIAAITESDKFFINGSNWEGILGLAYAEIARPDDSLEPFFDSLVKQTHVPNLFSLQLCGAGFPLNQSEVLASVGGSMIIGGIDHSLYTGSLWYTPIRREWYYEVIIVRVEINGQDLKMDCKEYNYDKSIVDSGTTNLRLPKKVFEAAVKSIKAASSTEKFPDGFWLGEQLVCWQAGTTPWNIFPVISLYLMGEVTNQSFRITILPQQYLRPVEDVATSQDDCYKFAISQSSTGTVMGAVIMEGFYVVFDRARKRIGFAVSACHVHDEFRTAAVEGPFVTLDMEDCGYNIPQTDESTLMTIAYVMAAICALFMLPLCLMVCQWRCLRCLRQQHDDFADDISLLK

SMILES	IC50 (Cathepsin D (Cat D)) [µM]	IC50 [1] [nM]	IC50 ([1]; average IC50, enzyme assay) [nM]	further results
Cc1c(C(=O)Nc2ccc(F)c([C@]3(CF)CS(=O)(=O)C(C)(C)C(N)=N3)c2)nc2ccc(C#N)cn12 [Example 390, N-(3-((3S)-5-amino-3-(fluoromethyl)-6,6-dimethyl-1,1-dioxido-3,6-dihydro-2H-1,4-thiazin-3-yl)-4-fluorophenyl)-6-cyano-3-methylimidazo[1,2-a]pyridine-2-carboxamide]	379	4.85	–	IC50 [2]: 23.6 nM
C=C(C)c1cc(Cl)cnc1C(=O)Nc1ccc(F)c([C@]2(C)CS(=O)(=O)C(C)(C)C(N)=N2)c1 [Example 194, (R)—N-(3-(5-amino-3,6,6-trimethyl-1,1-dioxido-3,6-dihydro-2H-1,4-thiazin-3-yl)-4-fluorophenyl)-5-chloro-3-(prop-1-en-2-yl)picolinamide]	617	–	5.18	IC50 ([2]; average IC50, HEK cell assay): 3.42 nM
COCc1cc(Cl)cnc1C(=O)Nc1ccc(F)c([C@]2(C)CS(=O)(=O)[C@@](C)(F)C(N)=N2)c1 [Example 328, N-(3-((3R,6R)-5-amino-6-fluoro-3,6-dimethyl-1,1-dioxido-3,6-dihydro-2H-1,4-thiazin-3-yl)-4-fluorophenyl)-5-chloro-3-(methoxymethyl)-2-pyridinecarboxamide]	598	–	0.51	IC50 ([2]; average IC50, HEK cell assay): 92.8 nM
COc1cnc2c(Nc3ccc(F)c([C@@]4(C(F)(F)F)CS(=O)(=O)C(C)(C)C(N)=N4)c3)nccc2c1 [Example 64, N-(3-((3R)-5-amino-6,6-dimethyl-1,1-dioxido-3-(trifluoromethyl)-3,6-dihydro-2H-1,4-thiazin-3-yl)-4-fluorophenyl)-3-methoxy-1,7-naphthyridin-8-amine]	> 400	8690	–	IC50 ([2]; Aβ40, 24 h incubation): > 10000 nM
C#Cc1cnc(Nc2ccc(F)c([C@]3(C)CS(=O)(=O)C(C)(C)C(N)=N3)c2)c2ncc(Cl)cc12 [Example 190, (R)-5-amino-3-(5-((3-chloro-5-ethynyl-1,7-naphthyridin-8-yl)amino)-2-fluorophenyl)-3,6,6-trimethyl-3,6-dihydro-2H-1,4-thiazine 1,1-dioxide]	63.9	–	1.3	IC50 ([2]; average IC50, cell assay): 44.8 nM
C=Cc1cc(Cl)cnc1C(=O)Nc1ccc(F)c([C@]2(CF)CS(=O)(=O)C(C)(C)C(N)=N2)c1 [Example 381, N-(3-((3S)-5-amino-3-(fluoromethyl)-6,6-dimethyl-1,1-dioxido-3,6-dihydro-2H-1,4-thiazin-3-yl)-4-fluorophenyl)-5-chloro-3-ethenyl-2-pyridinecarboxamide]	194	0.86	–	IC50 [2]: 53.9 nM
COc1cnc2c(Nc3ccc(F)c([C@]4(C)CS(=O)(=O)C(C)(C)C(N)=N4)c3)nccc2c1 [Example 46, N-(3-((3R)-5-amino-3,6,6-trimethyl-1,1-dioxido-3,6-dihydro-2H-1,4-thiazin-3-yl)-4-fluorophenyl)-3-methoxy-1,7-naphthyridin-8-amine]	397	5.4	–	IC50 ([2]; Aβ40, 24 h incubation): 4 nM
CCc1cc(Cl)cnc1C(=O)Nc1ccc(F)c([C@]2(C)CS(=O)(=O)C(C)(C)C(N)=N2)c1 [Example 196, (R)—N-(3-(5-amino-3,6,6-trimethyl-1,1-dioxido-3,6-dihydro-2H-1,4-thiazin-3-yl)-4-fluorophenyl)-5-chloro-3-ethylpicolinamide]	200	–	1.81	IC50 ([2]; average IC50, HEK cell assay): 5.4 nM
CC1(C)C(N)=N[C@](C)(c2cc(NC(=O)c3ccc(F)cn3)ccc2F)CS1(=O)=O [Example 18, N-(3-((3R)-5-amino-3,6,6-trimethyl-1,1-dioxido-3,6-dihydro-2H-1,4-thiazin-3-yl)-4-fluorophenyl)-5-fluoro-2-pyridinecarboxamide]	> 400	1.9	–	IC50 ([2]; Aβ40, 24 h incubation): 3.7 nM
Cc1cc(C(F)F)cnc1C(=O)Nc1ccc(F)c([C@@]2(C)N=C(N)C3(CCC3)S(=O)(=O)[C@@H]2F)c1 [Example 136, N-(3-((6S,7R)-9-amino-6-fluoro-7-methyl-5,5-dioxido-5-thia-8-azaspiro[3.5]non-8-en-7-yl)-4-fluorophenyl)-5-(difluoromethyl)-3-methylpicolinamide]	236	2.1	–	IC50 [2]: 4.9 nM
CC#CCOc1cnc2c(Nc3ccc(F)c([C@]4(C)CS(=O)(=O)[C@@](C)(F)C(N)=N4)c3)nccc2c1 [Example 226, N-(3-((3R,6R)-5-amino-6-fluoro-3,6-dimethyl-1,1-dioxido-3,6-dihydro-2H-1,4-thiazin-3-yl)-4-fluorophenyl)-3-(2-butyn-1-yloxy)-1,7-naphthyridin-8-amine]	> 400	–	0.74	IC50 ([2]; average IC50, cell assay): 5.74 nM
Cc1cc(OCC2CCC2)cnc1C(=O)Nc1ccc(F)c([C@]2(CF)CS(=O)(=O)C(C)(C)C(N)=N2)c1 [Example 151, (S)—N-(3-(5-amino-3-(fluoromethyl)-6,6-dimethyl-1,1-dioxido-3,6-dihydro-2H-1,4-thiazin-3-yl)-4-fluorophenyl)-5-(cyclobutylmethoxy)-3-methylpicolinamide]	232	1.7	–	IC50 [2]: 100 nM
CC1(C)C(N)=N[C@](C)(c2cc(Nc3nncc4cc(C#N)cnc34)ccc2F)CS1(=O)=O [Example 162, (R)-8-((3-(5-amino-3,6,6-trimethyl-1,1-dioxido-3,6-dihydro-2H-1,4-thiazin-3-yl)-4-fluorophenyl)amino)pyrido[2,3-d]pyridazine-3-carbonitrile]	418	–	2.3	IC50 ([2]; average IC50, cell assay): 1.5 nM

Continued by falling IC50 (Cathepsin D (Cat D)), values first:

IC50 (Cathepsin D (Cat D)) [µM]	IC50 [1] [nM]	IC50 ([1]; average IC50, enzyme assay) [nM]	SMILES	further results
147	–	341	CC1(C)C(N)=N[C@](C)(c2cc(Oc3ncccc3C(F)(F)F)ccc2F)CS1(=O)=O [Example 278, (5R)-5-(2-fluoro-5-((3-(trifluoromethyl)-2-pyridinyl)oxy)phenyl)-2,2,5-trimethyl-5,6-dihydro-2H-1,4-thiazin-3-amine 1,1-dioxide]	IC50 ([2]; average IC50, cell assay): 359 nM
109	–	18.1	CC1[C@@](C)(c2cc(NC(=O)c3ccc(Cl)cn3)ccc2F)N=C(N)[C@](C)(F)S1(=O)=O (stereo partly drawn) [Example 339, N-(3-((3R,6R)-5-amino-6-fluoro-2,3,6-trimethyl-1,1-dioxido-3,6-dihydro-2H-1,4-thiazin-3-yl)-4-fluorophenyl)-5-chloro-2-pyridinecarboxamide]	IC50 ([2]; average IC50, HEK cell assay): 196 nM
96.7	–	–	Cc1cc(OC(F)F)cnc1C(=O)Nc1ccc(F)c([C@@]2(C)N=C(N)C3(CC3)S(=O)(=O)[C@@H]2F)c1 [Example 202, N-(3-((5S,6R)-8-amino-5-fluoro-6-methyl-4,4-dioxido-4-thia-7-azaspiro[2.5]oct-7-en-6-yl)-4-fluorophenyl)-5-(difluoromethoxy)-3-methyl-2-pyridinecarboxamide]	IC50 ([1]; average IC50): 1.5 nM; IC50 ([2]; average IC50, HEK cells): 3.6 nM
71	–	1.1	Cc1cc(Cl)cnc1C(=O)Nc1cnc(F)c([C@]2(C)CS(=O)(=O)C(C)(C)C(N)=N2)c1 [Example 347, N-(5-((3R)-5-amino-3,6,6-trimethyl-1,1-dioxido-3,6-dihydro-2H-1,4-thiazin-3-yl)-6-fluoro-3-pyridinyl)-5-chloro-3-methyl-2-pyridinecarboxamide]	IC50 ([2]; average IC50, HEK cell assay): 1.8 nM
67.5	3.11	–	Cc1cc(OC(F)F)cnc1C(=O)Nc1ccc(F)c([C@]2(C)CS(=O)(=O)C3(CCC3)C(N)=N2)c1 [Example 121, (R)—N-(3-(9-amino-7-methyl-5,5-dioxido-5-thia-8-azaspiro[3.5]non-8-en-7-yl)-4-fluorophenyl)-5-(difluoromethoxy)-3-methylpicolinamide]	IC50 [2]: 7.4 nM
61.8	2.97	–	Cc1cc(OC(F)F)cnc1C(=O)Nc1ccc(F)c([C@@]2(C)N=C(N)C3(CCC3)S(=O)(=O)[C@@H]2F)c1 [Example 132, N-(3-((6S,7R)-9-amino-6-fluoro-7-methyl-5,5-dioxido-5-thia-8-azaspiro[3.5]non-8-en-7-yl)-4-fluorophenyl)-5-(difluoromethoxy)-3-methylpicolinamide]	IC50 [2]: 5.8 nM
32.3	–	1.5	CC1(C)C(N)=N[C@](CF)(c2cc(Nc3ncc(F)c4cc(OCC5CCC5)cnc34)ccc2F)CS1(=O)=O [Example 434, N-(3-((3S)-5-amino-3-(fluoromethyl)-6,6-dimethyl-1,1-dioxido-3,6-dihydro-2H-1,4-thiazin-3-yl)-4-fluorophenyl)-3-(cyclobutylmethoxy)-5-fluoro-1,7-naphthyridin-8-amine]	IC50 ([2]; average IC50, cell assay): 341 nM
20	–	5.1	Cc1cc(Cl)cnc1C(=O)Nc1ccc(F)c([C@@]2(C)N=C(N)C(C)(C)S(=O)(=O)C23CC3)c1 [Example 340, N-(3-((8R)-6-amino-5,5,8-trimethyl-4,4-dioxido-4-thia-7-azaspiro[2.5]oct-6-en-8-yl)-4-fluorophenyl)-5-chloro-3-methyl-2-pyridinecarboxamide]	IC50 ([2]; average IC50, HEK cell assay): 4.4 nM
